Like-named read-outs stand apart in the source and are kept apart here. Where only a bound is given, the exact number is not on record here.

Test [1] concerns Plasmodium berghei (Pb-Luc) exoerythrocytic-stage parasites. The settings on record: for normalized signal at 0.000508053 (first series): concentration 0.000508053, first replicate series; for normalized signal at 0.000508053 (first series) / normalized signal at 0.000508053 (second series) / normalized signal at 0.00152416 (first series) / normalized signal at 0.00152416 (second series) / normalized signal at 0.00457247 (first series) / normalized signal at 0.00457247 (second series) / normalized signal at 0.0137174 (first series) / normalized signal at 0.0137174 (second series) / normalized signal at 0.0411523 (first series) / normalized signal at 0.0411523 (second series) / normalized signal at 0.123457 (first series) / normalized signal at 0.123457 (second series) / normalized signal at 0.37037 (first series) / normalized signal at 0.37037 (second series) / normalized signal at 1.11111 (first series) / normalized signal at 1.11111 (second series) / normalized signal at 3.33333 (first series) / normalized signal at 3.33333 (second series) / normalized signal at 10 (first series) / normalized signal at 10 (second series) / normalized signal at concentration 0.000508053 / normalized signal at concentration 0.00152416 / normalized signal at concentration 0.00457247 / normalized signal at concentration 0.0137174 / normalized signal at concentration 0.0411523 / normalized signal at concentration 0.123457 / normalized signal at concentration 0.37037 / normalized signal at concentration 1.11111 / normalized signal at concentration 3.33333 / normalized signal at concentration 10: fraction of control; for normalized signal at 0.000508053 (second series): concentration 0.000508053, second replicate series; for normalized signal at 0.00152416 (first series): concentration 0.00152416, first replicate series; for normalized signal at 0.00152416 (second series): concentration 0.00152416, second replicate series; for normalized signal at 0.00457247 (first series): concentration 0.00457247, first replicate series; for normalized signal at 0.00457247 (second series): concentration 0.00457247, second replicate series; for normalized signal at 0.0137174 (first series): concentration 0.0137174, first replicate series; for normalized signal at 0.0137174 (second series): concentration 0.0137174, second replicate series; for normalized signal at 0.0411523 (first series): concentration 0.0411523, first replicate series; for normalized signal at 0.0411523 (second series): concentration 0.0411523, second replicate series; for normalized signal at 0.123457 (first series): concentration 0.123457, first replicate series; for normalized signal at 0.123457 (second series): concentration 0.123457, second replicate series; for normalized signal at 0.37037 (first series): concentration 0.37037, first replicate series; for normalized signal at 0.37037 (second series): concentration 0.37037, second replicate series; for normalized signal at 1.11111 (first series): concentration 1.11111, first replicate series; for normalized signal at 1.11111 (second series): concentration 1.11111, second replicate series; for normalized signal at 3.33333 (first series): concentration 3.33333, first replicate series; for normalized signal at 3.33333 (second series): concentration 3.33333, second replicate series; for normalized signal at 10 (first series): concentration 10, first replicate series; for normalized signal at 10 (second series): concentration 10, second replicate series; for IC50: read-out: PbLuc_IC50.

The subject of a further test is HepG2-A16-CD81EGFP cells. The conditions noted are these: for IC50: read-out: Tox_IC50, HepG2 cytotoxicity.
Setting [2] is: 2nd round, maximal inhibition in dose series.
Where [3] appears, read: 2nd round, Broad DOS compounds, unit not printed (dose series head 10 to 0.000508053).
Where [4] appears, read: second series of columns (replicate).
Setting [5] is: sheet 2nd round, maximal inhibition in dose response.

`COc1ccc(NC(=O)N(C)C[C@H]2Oc3ccc(NC(=O)Nc4cccc5ccccc45)cc3CC(=O)N([C@@H](C)CO)C[C@@H]2C)cc1` [BRD-K15104969-001-01-5]: the “PbLuc_max_inhibition (%)” value in test [1] (setting [2]) is 44%. Besides, in test [1], the “normalized signal at 0.000508053 (first series)” value is given as 0.969, the “normalized signal at 0.000508053 (second series)” value was found to be 0.7927, the “normalized signal at 0.00152416 (first series)” value amounted to 1.086 and the “normalized signal at 0.00152416 (second series)” value is 0.9921. For the same compound, in test [1], the “normalized signal at 0.00457247 (first series)” value was found to be 0.8915, the “normalized signal at 0.00457247 (second series)” value is reported as 0.8364, the “normalized signal at 0.0137174 (first series)” value is on record as 1.267 and the “normalized signal at 0.0137174 (second series)” value is 0.9174. Also, in test [1], the “normalized signal at 0.0411523 (first series)” value is on record as 0.9934, the “normalized signal at 0.0411523 (second series)” value was 0.8265, the “normalized signal at 0.123457 (first series)” value was 1.28 and the “normalized signal at 0.123457 (second series)” value turned out to be 0.8011. In addition, in test [1], the “normalized signal at 0.37037 (first series)” value came out at 0.9047, the “normalized signal at 0.37037 (second series)” value came out at 0.8073, the “normalized signal at 1.11111 (first series)” value is 0.8441 and the “normalized signal at 1.11111 (second series)” value is reported as 0.8236. In addition, in test [1], the “normalized signal at 3.33333 (first series)” value is 0.7436, the “normalized signal at 3.33333 (second series)” value is recorded as 1.005, the “normalized signal at 10 (first series)” value worked out at 0.5627 and the “normalized signal at 10 (second series)” value came out at 0.5558. For the same compound, the IC50 in test [1] (setting [3]) was greater than 10 µM. Moreover, in the test on HepG2-A16-CD81EGFP cells (setting [2]), the “Tox_max_inhibition (%)” value stood at 14%. Besides, the IC50 in the test with HepG2-A16-CD81EGFP cells (2nd round, unit inferred) is greater than 10 µM.

Take `O=C(Nc1ccc2c(c1)[C@@H]1C[C@@H](CC(=O)N3CCc4ccccc4C3)O[C@@H](CO)[C@@H]1O2)c1ccc2c(c1)OCO2` [BRD-K15778794-001-01-7]: in test [1] (first series of columns), the “normalized signal at concentration 0.000508053” value was 1.025, the “normalized signal at concentration 0.00152416” value is 1.17, the “normalized signal at concentration 0.00457247” value is recorded as 0.8971 and the “normalized signal at concentration 0.0137174” value came to 1.186. Further, in test [1] (first series of columns), the “normalized signal at concentration 0.0411523” value turned out to be 1.0917, the “normalized signal at concentration 0.123457” value was found to be 0.8992, the “normalized signal at concentration 0.37037” value amounted to 1.075 and the “normalized signal at concentration 1.11111” value turned out to be 1.105. In addition, in test [1] (first series of columns), the “normalized signal at concentration 3.33333” value was determined as 0.9056 and the “normalized signal at concentration 10” value came out at 0.4372. For the same compound, the IC50 in test [1] (sheet 2nd round, Pb-Luc exoerythrocytic stage, 10-point dose response, top concentration 10) is greater than 10 µM. Moreover, in test [1] (setting [4]), the “normalized signal at concentration 0.000508053” value is recorded as 0.9828, the “normalized signal at concentration 0.00152416” value came out at 0.8672, the “normalized signal at concentration 0.00457247” value came out at 0.9127 and the “normalized signal at concentration 0.0137174” value stood at 0.911. In addition, in test [1] (setting [4]), the “normalized signal at concentration 0.0411523” value worked out at 0.8229, the “normalized signal at concentration 0.123457” value stood at 0.8258, the “normalized signal at concentration 0.37037” value was found to be 0.9225 and the “normalized signal at concentration 1.11111” value turned out to be 1.043. In test [1] (setting [4]), the “normalized signal at concentration 3.33333” value was found to be 0.8183 and the “normalized signal at concentration 10” value stood at 0.6797. The “PbLuc_max_inhibition (%)” value in test [1] (setting [5]) was determined as 56%. Also, the IC50 with HepG2-A16-CD81EGFP cells (sheet 2nd round) was greater than 10 µM. Besides, the “Tox_max_inhibition (%)” value in the test with HepG2-A16-CD81EGFP cells (setting [5]) worked out at 18%.

Regarding `C[C@@H]1CCCCO[C@@H](CN(C)S(=O)(=O)c2ccc(F)cc2)[C@H](C)CN([C@H](C)CO)C(=O)c2cc(N(C)C)ccc2O1` [BRD-K17570530-001-01-5], the “normalised signal at concentration 0.000508053 (first series)” value in test [1] (concentration 0.000508053, first series) was found to be 0.9121. Besides, the “normalised signal at concentration 0.000508053 (second series)” value in test [1] (concentration 0.000508053, second series) is 0.9459. Also, the “normalised signal at concentration 0.00152416 (first series)” value in test [1] (concentration 0.00152416, first series) is given as 0.7511. Besides, the “normalised signal at concentration 0.00152416 (second series)” value in test [1] (concentration 0.00152416, second series) stood at 0.8649. In test [1] (concentration 0.00457247, first series), the “normalised signal at concentration 0.00457247 (first series)” value is recorded as 0.9449. Moreover, in test [1] (concentration 0.00457247, second series), the “normalised signal at concentration 0.00457247 (second series)” value amounted to 0.9685. In test [1] (concentration 0.0137174, first series), the “normalised signal at concentration 0.0137174 (first series)” value stood at 0.964. The “normalised signal at concentration 0.0137174 (second series)” value in test [1] (concentration 0.0137174, second series) amounted to 0.9508. In test [1] (concentration 0.0411523, first series), the “normalised signal at concentration 0.0411523 (first series)” value is recorded as 1.052. Besides, the “normalised signal at concentration 0.0411523 (second series)” value in test [1] (concentration 0.0411523, second series) was determined as 0.9313. In addition, the “normalised signal at concentration 0.123457 (first series)” value in test [1] (concentration 0.123457, first series) was 1.16. Also, the “normalised signal at concentration 0.123457 (second series)” value in test [1] (concentration 0.123457, second series) worked out at 0.9927. Further, in test [1] (concentration 0.37037, first series), the “normalised signal at concentration 0.37037 (first series)” value was 0.8577. Besides, the “normalised signal at concentration 0.37037 (second series)” value in test [1] (concentration 0.37037, second series) is listed as 0.9491. In addition, the “normalised signal at concentration 1.11111 (first series)” value in test [1] (concentration 1.11111, first series) came to 0.9131. Moreover, in test [1] (concentration 1.11111, second series), the “normalised signal at concentration 1.11111 (second series)” value is 0.9395. Also, the “normalised signal at concentration 3.33333 (first series)” value in test [1] (concentration 3.33333, first series) came out at 0.7629. Moreover, in test [1] (concentration 3.33333, second series), the “normalised signal at concentration 3.33333 (second series)” value came to 0.867. The “normalised signal at concentration 10 (first series)” value in test [1] (concentration 10, first series of dose columns) was found to be 0.8313. Further, the “normalised signal at concentration 10 (second series)” value in test [1] (concentration 10, second series of dose columns) is listed as 0.7644. The IC50 in test [1] (sheet "2nd round", Broad compounds, dose response top concentration 10) is greater than 10 µM. Besides, in test [1] (sheet "2nd round"), the “PbLuc_max_inhibition (%)” value is 25%. In the test with HepG2-A16-CD81EGFP cells (sheet "2nd round"), the IC50 is greater than 10 µM and the “Tox_max_inhibition (%)” value stood at 4.52%.

With `O=C(C[C@@H]1CC[C@@H]2[C@H](COC[C@@H](O)CN2C(=O)c2ccncc2)O1)Nc1ccc(-c2ccccc2)cc1` [BRD-K17686828-001-01-0], the “PbLuc_max_inhibition (%)” value in test [1] (setting [2]) came to 43%. In test [1], the “normalized signal at 0.000508053 (first series)” value came out at 1.033, the “normalized signal at 0.000508053 (second series)” value turned out to be 0.8541, the “normalized signal at 0.00152416 (first series)” value was 0.9014 and the “normalized signal at 0.00152416 (second series)” value came to 0.8307. Besides, in test [1], the “normalized signal at 0.00457247 (first series)” value was found to be 0.9821, the “normalized signal at 0.00457247 (second series)” value was 0.9422, the “normalized signal at 0.0137174 (first series)” value is given as 1.011 and the “normalized signal at 0.0137174 (second series)” value is on record as 0.8936. In test [1], the “normalized signal at 0.0411523 (first series)” value is 0.9016, the “normalized signal at 0.0411523 (second series)” value is recorded as 0.7632, the “normalized signal at 0.123457 (first series)” value is given as 1.067 and the “normalized signal at 0.123457 (second series)” value amounted to 0.5683. For the same compound, in test [1], the “normalized signal at 0.37037 (first series)” value is listed as 0.7959, the “normalized signal at 0.37037 (second series)” value stood at 0.6689, the “normalized signal at 1.11111 (first series)” value came out at 0.9118 and the “normalized signal at 1.11111 (second series)” value worked out at 0.6624. Also, in test [1], the “normalized signal at 3.33333 (first series)” value worked out at 0.9028, the “normalized signal at 3.33333 (second series)” value came out at 0.8412, the “normalized signal at 10 (first series)” value is 0.8222 and the “normalized signal at 10 (second series)” value came out at 0.7063. The IC50 in test [1] (setting [3]) was greater than 10 µM. Moreover, the “Tox_max_inhibition (%)” value in the test on HepG2-A16-CD81EGFP cells (setting [2]) was determined as 9%. Also, in the test on HepG2-A16-CD81EGFP cells (2nd round, unit inferred), the IC50 was greater than 10 µM.

The values above are taken from paper PMC4890880 (ACS infectious diseases, 2016).
